Values joined by “and” are separate entries in the source; they are usually repeats but may differ in a detail not shown here. Equal values may be shown once. Read-outs that look alike come from different tables or passages of the source. Non-standard residues stand in square brackets, D forms with d. Residues, ends and D or L forms follow the SMILES beside them. *: point of attachment. Acetyl(1,8-naphthalimido) = O=C1c2cccc3cccc(c23)C(=O)N1CC(=O)*; Caffeoyl = O=C(/C=C/c1ccc(O)c(O)c1)*; βAla = NCCC(=O)O
Key:
[1] = In vitro cytotoxicity, 3T3 NRU test; type: cell-based; conditions: mouse, BALB/3T3 clone A31 mouse embryo cells, 24 h incubation, 15 to 2000 μM, read-out: IC50 of Mean ± SD Cytotoxicity BALB 3T3 (CC50)
Experimental: The newly synthesized compounds were studied for cytotoxicity assessment by an in vitro 3T3 NRU test. The cells were incubated with the test substances at a concentration of 15 to 2000 μM for 24 h at 37 °C, 5% CO2 and 95% humidity. The cytotoxicity expressed in % relative to the negative control was determined.
The cytotoxicity testing was performed as described by Borenfreund et al. and the latest modification of the validated BALB/3T3 clone A31 Neutral Red Uptake Assay (3T3 NRU test). BALB/3T3 clone A31 mouse embryo cells were grown as a monolayer in 75 cm^2 tissue culture flasks in high-glucose DMEM (4.5 g/L), supplemented with 10% FBS and antibiotics. Cultures were maintained at 37.5 °C in a humidified atmosphere under 5% CO2. Cells were plated at a density of 1 × 10^4 cells in 100 μL culture medium in each well of 96-well flat-bottomed microplates and allowed to adhere for 24 h before treatment with test compounds, dissolved in DMSO and further diluted in culture medium. A wide concentration range was applied (from 15 to 2000 μM), and the cells were incubated for an additional 24 h. After treatment with Neutral Red medium, washing and application of the ethanol/acetic acid solution (NR Desorb), the absorption was measured on a TECAN microplate reader at wavelength 540 nm. The data obtained are on average from three independent experiments ± SD, n = 6.

[2] = test system: Escherichia coli K12 407; assay: Antimicrobial assay, agar/disc diffusion, E. coli; type: cell-based; conditions: 6 μL of 20 μM solution on 6 mm paper disc, 24 h
Experimental: (§1) The microbial cultures were placed in a thin layer on sterile plates. On sterile paper discs, 6 μL of 20 μM solutions in distilled water of the test compounds was placed. Further, the discs were incorporated into a thin layer of sterile plates (Figure 3). The studies were triplicates for each concentration, and the diameters of the obtained zones represent the average value of the three results.
(§2) All newly synthesized derivatives of (KLAKLAK)2-NH2 at concentrations of 20 μM in distilled water were tested against model strains E. coli NBIMCC K12 407, B. subtilis NBIMCC 3562 and C. albicans NBIMCC 74. The strains were obtained from the National Bank for Industrial Microorganisms and Cell Cultures (NBIMCC, Sofia, Bulgaria). Exponential cultures (1 × 10^7 cfu/mL) of strains E. coli K12 407 were obtained in Luria-Bertani (LB, HiMedia, Mumbai, India); for B. subtilis 3562, an initial bacterial concentration of 1 × 10^6 cfu/mL was obtained in nutrient broth (NB, HiMedia, Mumbai, India); and for C. albicans 74, and initial bacterial concentration of 1 × 10^5 cfu/mL was obtained in yeast mold (YM) medium. Cultivation was performed in an ES-20/60 incubator shaker (Biosan, Riga, Latvia) at 30 °C for B. subtilis 3562 and at 37 °C for E. coli K12 407 and C. albicans 74 with shaking at 220 rpm for 24 h. The agar diffusion method was applied to determine the antimicrobial activity of the tested compounds. LB/NB/YM plates were inoculated by spreading 100 μL of each microbial culture on their surface, followed by incubation at 30/37 °C for penetration of suspension into the agar. After 30 min, sterile paper discs (6 mm in diameter) were soaked with the tested compounds in amounts of 6 µL and placed on the surface of agar Petri dishes. The plates were incubated at 30/37 °C for 24 h. Antimicrobial activity was assessed by measuring the diameter of the obtained inhibition zones. Sterile paper discs soaked with water were used as blank controls. Mean values were calculated by performing the experiments in triplicates.

[3] = test system: Bacillus subtilis 3562; assay: Antimicrobial assay, agar/disc diffusion, B. subtilis; type: cell-based; conditions: 6 μL of 20 μM solution on 6 mm paper disc, 24 h
Experimental: as §1, §2

[4] = test system: Candida albicans 74; assay: Antimicrobial assay, agar/disc diffusion, C. albicans; type: cell-based; conditions: 6 μL of 20 μM solution on 6 mm paper disc, 24 h
Experimental: as §1, §2

[5] = test system: MCF-10A; assay: Antiproliferative activity, MTT dye-reduction assay, MCF-10A; type: cell-based, human; conditions: 72 h, read-out: IC50 of Mean ± SD Antiproliferative Activity MCF-10A
Experimental: (§3) The compounds were studied for antiproliferative activity by MTT dye-reduction assay. Cell cultures from different cell lines (MCF-10A, MCF-7 and MDA-MB-231) were incubated with the test substances at a concentration of 15 to 2000 μM for 72 h at 37 °C, 5% CO2 and 95% humidity. The antiproliferative activity expressed in % relative to the negative control was determined.
MCF-10A is a reliable model for normal human mammary epithelial cells, which serves as a control in experiments to determine antitumor activity.
(§4) The antiproliferative activity testing was performed on cell cultures from several human cell lines using the standard MTT dye-reduction assay, described by Mosmann. The assay is based on the metabolism of the tetrazolium salt 3-(4,5-dimethylthiazol-2-yl)-2,5-diphenyltetrazolium bromide (MTT) to insoluble formazan by mitochondrial reductases. The formazan concentration can be determined spectrophotometrically. The measured absorption is an indicator of cell viability and metabolic activity. The following cell lines were used in the experiments: mammary gland type A adenocarcinoma ER+, PR+ and HER2− (MCF-7); triple-negative breast cancer ER−, PR−, and HER2− (MDA-MB-231); and breast, nontumorigenic epithelial cell line (MCF-10A). The cell lines were routinely grown as monolayers in 75 cm^2 tissue culture flasks under standard conditions (described above). Cells were plated at a density of 1 × 10^3 cells in 100 µL in each well of 96-well flat-bottomed microplates and allowed to adhere for 24 h before treatment with test compounds. A concentration range from 15 to 2000 μM was applied for 72 h. Formazan absorption was registered using a microplate reader at λ = 540 nm. Antiproliferative activities were expressed as IC50 values (concentrations required for 50% inhibition of cell growth), calculated using nonlinear regression analysis (GraphPad Prism 4 Software, https://www.graphpad.com).

[6] = test system: MCF-7; assay: Antiproliferative activity, MTT dye-reduction assay, MCF-7; type: cell-based, human; conditions: for IC50: MTT, 72 h, read-out: IC50 of Mean ± SD Antiproliferative Activity MCF-7; for SI ± SD MCF-7 (selective index): SI = IC50 of MCF-10A/IC50 of MCF-7
Experimental: as §3, §4

[7] = test system: MDA-MB-231; assay: Antiproliferative activity, MTT dye-reduction assay, MDA-MB-231; type: cell-based, human; conditions: for IC50: MTT, 72 h, read-out: IC50 of Mean ± SD Antiproliferative Activity MDA-MB-231; for SI ± SD MDA-MB-231 (selective index): SI = IC50 of MCF-10A/IC50 of MDA-MB-231
Experimental: as §3, §4

[8] = Hydrolytic stability in model buffer solutions by HPLC; type: physicochemical; conditions: 72 h, model buffer solutions pH 2, pH 7.4 and pH 9, HPLC
Experimental: HPLC profiles of all target compounds at three different pH values that mimic human pH in the stomach (pH 2), blood plasma (pH 7.4) and small intestine (pH 9) are presented in the Supplementary Materials.
The designed changes in the structures, i.e., C-terminal amide modification, as well as the introduction of a β-Ala moiety, lead to complete stability of the target compounds during the test period in all model conditions.
The obtained solution was made up to 1000.0 mL with dH2O; • (ii) Buffer with pH 7.4–2.38 g Na2HPO4, 0.19 g KH2PO4 and 8.0 g NaCl was dissolved in dH2O. The obtained solution was made up to 1000.0 mL with dH2O. • (iii) Buffer with pH 9.0–1000.0 mL of solution I was mixed with 420.0 mL of solution II. Solution I: 6.18 g of H3BO3 was dissolved in 0.1 mol/L KCl, and it was made up to 1000.0 mL with the same solvent; Solution II: 0.1 mol/L NaOH.

SMILES | CC50 at 24 h [1] [µM] | Inhibition zones size, Escherichia coli K12 407 [2] | Inhibition zones size, Bacillus subtilis 3562 [3] | Inhibition zones size, Candida albicans 74 [4] | melting point [°C] | IC50 [5] [µM] | IC50 ([6]; listed as Si 9) [µM] | IC50 [6] [µM] | SI ± SD MCF-7 (selective index) [6] | SI ± SD MCF-7 (selective index) ([6]; listed as Si 9) | IC50 [7] [µM] | SI ± SD MDA-MB-231 (selective index) [7] | Hydrolytic stability [8] | Inhibition zones size, Candida albicans 74 ([4]; listed as Si 5) [mm] | SI ± SD MCF-7 (selective index) ([6]; listed as Si 10) | SI ± SD MCF-7 (selective index) ([6]; listed as Si 4) | Inhibition zones size, Escherichia coli K12 407 ([2]; listed as S4) [mm] | Inhibition zones size, Bacillus subtilis 3562 ([3]; listed as S4) [mm] | Inhibition zones size, Candida albicans 74 ([4]; listed as Si 4) [mm]
CC(C)C[C@H](NC(=O)[C@H](CCCCN)NC(=O)/C=C/c1ccc(O)c(O)c1)C(=O)NCCC(=O)N[C@@H](CCCCN)C(=O)N[C@@H](CC(C)C)C(=O)NCCC(=O)N[C@@H](CCCCN)C(=O)N[C@@H](CCCCN)C(=O)N[C@@H](CC(C)C)C(=O)NCCC(=O)N[C@@H](CCCCN)C(=O)N[C@@H](CC(C)C)C(=O)NCCC(=O)N[C@@H](CCCCN)C(N)=O [Si12, Caf-(KLβ-AKLβ-AK)2-NH2] (Caffeoyl-KL[βAla]KL[βAla]KKL[βAla]KL[βAla]K-NH2) | 880 ± 30.3 | good antimicrobial activity | good antimicrobial activity | did not show any antifungal activity | 160 to 162 | – | – | – | – | – | – | – | – | – | – | – | – | – | –
CC(C)C[C@H](NC(=O)[C@H](CCCCN)NC(=O)CN1C(=O)c2cccc3cccc(c23)C1=O)C(=O)N[C@@H](C)C(=O)N[C@@H](CCCCN)C(=O)N[C@@H](CC(C)C)C(=O)N[C@@H](C)C(=O)N[C@@H](CCCCN)C(=O)N[C@@H](CCCCN)C(=O)N[C@@H](CC(C)C)C(=O)N[C@@H](C)C(=O)N[C@@H](CCCCN)C(=O)N[C@@H](CC(C)C)C(=O)N[C@@H](C)C(=O)N[C@@H](CCCCN)C(N)=O [Si9, 1,8-NphtG-(KLAKLAK)2-NH2] | 185 ± 4.4 | 11.33 ± 0.26 mm | 13.50 ± 0.34 mm | 20.66 ± 0.45 mm | – | 99.1 ± 5.59 | 45.2 ± 4.15 | 45 ± 4.2 | 2.19 ± 0.147 | 2.192 ± 0.147 | 179 ± 2.92 | 0.553 ± 0.037 | complete hydrolytic stability | – | – | – | – | – | –
CC(C)C[C@H](NC(=O)[C@H](CCCCN)NC(=O)CCNC(=O)[C@H](CC(C)C)NC(=O)[C@H](CCCCN)NC(=O)[C@H](CCCCN)NC(=O)CCNC(=O)[C@H](CC(C)C)NC(=O)[C@H](CCCCN)NC(=O)CCNC(=O)[C@H](CC(C)C)NC(=O)[C@@H](N)CCCCN)C(=O)NCCC(=O)N[C@@H](CCCCN)C(N)=O [Si5, (KLβ-AKLβ-AK)2-NH2] (H-KL[βAla]KL[βAla]KKL[βAla]KL[βAla]K-NH2) | 1270 ± 70.7 | 11.83 ± 0.27 mm | 11.16 ± 0.25 mm | did not show any antifungal activity | – | 1290 ± 38.1 | – | 1250 ± 34.1 | 1.028 ± 0.033 | – | 1450 ± 15.7 | 0.890 ± 0.033 | complete hydrolytic stability | 0 | – | – | – | – | –
CC(C)C[C@H](NC(=O)[C@H](CCCCN)NC(=O)/C=C/c1ccc(O)c(O)c1)C(=O)N[C@@H](C)C(=O)N[C@@H](CCCCN)C(=O)N[C@@H](CC(C)C)C(=O)N[C@@H](C)C(=O)N[C@@H](CCCCN)C(=O)N[C@@H](CCCCN)C(=O)N[C@@H](CC(C)C)C(=O)N[C@@H](C)C(=O)N[C@@H](CCCCN)C(=O)N[C@@H](CC(C)C)C(=O)N[C@@H](C)C(=O)N[C@@H](CCCCN)C(N)=O [Si10, Caf-(KLAKLAK)2-NH2] | 173 ± 8.51 | 13.33 ± 0.33 mm | 12.66 ± 0.31 mm | 17.66 ± 0.41 mm | 122 to 124 | 72.5 ± 4.69 | – | 50.5 ± 1.66 | 1.4 ± 0.072 and 1.44 | – | 177 ± 2.79 | 0.411 ± 0.023 | complete hydrolytic stability | – | 1.436 ± 0.072 | – | – | – | –
CC(C)C[C@H](NC(=O)[C@H](CCCCN)NC(=O)CCNC(=O)[C@H](CC(C)C)NC(=O)[C@H](CCCCN)NC(=O)CN1C(=O)c2cccc3cccc(c23)C1=O)C(=O)NCCC(=O)N[C@@H](CCCCN)C(=O)N[C@@H](CCCCN)C(=O)N[C@@H](CC(C)C)C(=O)NCCC(=O)N[C@@H](CCCCN)C(=O)N[C@@H](CC(C)C)C(=O)NCCC(=O)N[C@@H](CCCCN)C(N)=O [Si4, 1,8-NphtG-(KLβ-AKLβ-AK)2-NH2] ({Acetyl(1,8-naphthalimido)}-KL[βAla]KL[βAla]KKL[βAla]KL[βAla]K-NH2) | 1220 ± 40.5 | – | – | good antimicrobial activity | – | 1330 ± 69.5 | – | 881 ± 80.5 | 1.51 ± 0.148 | – | 1410 ± 26.2 | 0.940 ± 0.049 | complete hydrolytic stability | – | – | 1.505 ± 0.148 | 16 | 15.83 | 14.33 ± 0.36
